Experimental data published in ChEMBL document CHEMBL4043214, “Design, synthesis, and SAR study of 3-(benzo[d][1,3]dioxol-5-yl)-N-benzylpropanamide as novel potent synergists against fluconazole-resistant Candida albicans” (2017).
Converted amounts (≈) assume the structure as drawn.

Columns and labels:
Type in all cases: functional
Candida albicans [1] = assay: Synergistic anti-fungal activity against fluconazole-resistant Candida albicans isolate 103 in presence of fluconazole by two-fold dilution method
Candida albicans [2] = assay: Anti-fungal activity against fluconazole-resistant Candida albicans isolate 100 by microbroth dilution method
Candida albicans [3] = assay: Potentiation of fluconazole-induced anti-fungal activity against fluconazole-resistant Candida albicans isolate 100 by two-fold dilution method
Candida albicans [4] = assay: Synergistic anti-fungal activity against fluconazole-resistant Candida albicans isolate 100 in presence of fluconazole by two-fold dilution method
Candida albicans [5] = assay: Anti-fungal activity against fluconazole-resistant Candida albicans isolate 103 by microbroth dilution method
Candida albicans [6] = assay: Potentiation of fluconazole-induced anti-fungal activity against fluconazole-resistant Candida albicans isolate 103 by two-fold dilution method
Candida albicans [7] = assay: Potentiation of fluconazole-induced anti-fungal activity against fluconazole-resistant Candida albicans isolate 103 at 1 ug/ml by checkerboard microdilution assay
Candida albicans [8] = assay: Potentiation of fluconazole-induced anti-fungal activity against fluconazole-resistant Candida albicans isolate 103 assessed as fluconazole MIC80 at 4 ug/ml by checkerboard microdilution assay
Candida albicans [9] = assay: Potentiation of fluconazole-induced anti-fungal activity against fluconazole-resistant Candida albicans isolate 100 at 8 ug/ml by checkerboard microdilution assay
Candida albicans [10] = assay: Potentiation of fluconazole-induced anti-fungal activity against fluconazole-resistant Candida albicans isolate 103 at 2 ug/ml by checkerboard microdilution assay
Candida albicans [11] = assay: Potentiation of fluconazole-induced anti-fungal activity against fluconazole-resistant Candida albicans isolate 100 at 4 ug/ml by checkerboard microdilution assay
Candida albicans [12] = assay: Potentiation of fluconazole-induced anti-fungal activity against fluconazole-resistant Candida albicans isolate 100 at 1 ug/ml by checkerboard microdilution assay
Candida albicans [13] = assay: Potentiation of fluconazole-induced anti-fungal activity against fluconazole-resistant Candida albicans isolate 100 at 2 ug/ml by checkerboard microdilution assay
Candida albicans [14] = assay: Potentiation of fluconazole-induced anti-fungal activity against fluconazole-resistant Candida albicans isolate 103 at 8 ug/ml by checkerboard microdilution assay
Candida albicans [15] = assay: Potentiation of fluconazole-induced anti-fungal activity against fluconazole-resistant Candida albicans isolate 100 assessed as fluconazole MIC80 at 4 ug/ml by checkerboard microdilution assay
Candida albicans [16] = assay: Potentiation of fluconazole-induced anti-fungal activity against fluconazole-resistant Candida albicans isolate 100 assessed as fluconazole MIC80 at 1 ug/ml by checkerboard microdilution assay
Candida albicans [17] = assay: Potentiation of fluconazole-induced anti-fungal activity against fluconazole-resistant Candida albicans isolate 103 assessed as fluconazole MIC80 at 2 ug/ml by checkerboard microdilution assay
Candida albicans [18] = assay: Potentiation of fluconazole-induced anti-fungal activity against fluconazole-resistant Candida albicans isolate 103 assessed as fluconazole MIC80 at 1 ug/ml by checkerboard microdilution assay
Candida albicans [19] = assay: Potentiation of fluconazole-induced anti-fungal activity against fluconazole-resistant Candida albicans isolate 103 at 4 ug/ml by checkerboard microdilution assay
Candida albicans [20] = assay: Potentiation of fluconazole-induced anti-fungal activity against fluconazole-resistant Candida albicans isolate 100 assessed as fluconazole MIC80 at 2 ug/ml by checkerboard microdilution assay
Candida albicans [21] = assay: Potentiation of fluconazole-induced anti-fungal activity against fluconazole-resistant Candida albicans isolate 103 assessed as fluconazole MIC80 at 8 ug/ml by checkerboard microdilution assay
Candida albicans [22] = assay: Potentiation of fluconazole-induced anti-fungal activity against fluconazole-resistant Candida albicans isolate 100 assessed as fluconazole MIC80 at 8 ug/ml by checkerboard microdilution assay

Row | Structure (SMILES) | MIC80 (Candida albicans [1]) [µg/mL] | MIC80 (Candida albicans [2]) [µg/mL] | fractional inhibitory concentration index (FICI) (Candida albicans [3]) | MIC80 (Candida albicans [4]) [µg/mL] | MIC80 (Candida albicans [5]) [µg/mL] | fractional inhibitory concentration index (FICI) (Candida albicans [6]) | further results
1 | Cc1ccc(-c2ccccc2CNC(=O)CCc2ccc3c(c2)OCO3)cc1 | 0.25 | > 64 | 0.064 | 0.25 | > 64 | 0.064 | –
2 | O=C(CCc1ccc2c(c1)OCO2)NCc1cccc(-c2ccc(F)cc2)c1 | 1 | > 64 | 0.066 | 0.5 | > 64 | 0.07 | –
3 | O=C(CCc1ccc2c(c1)OCO2)NCc1ccc(-c2ccccc2F)cc1 | 0.031 | > 64 | 0.063 | 0.031 | > 64 | 0.063 | fractional inhibitory concentration index (FICI) (Candida albicans [7]): 0.01; MIC80 (Candida albicans [8]): 0.063 µg/mL; fractional inhibitory concentration index (FICI) (Candida albicans [9]): 0.066; fractional inhibitory concentration index (FICI) (Candida albicans [10]): 0.017; fractional inhibitory concentration index (FICI) (Candida albicans [11]): 0.032; fractional inhibitory concentration index (FICI) (Candida albicans [12]): 0.009; fractional inhibitory concentration index (FICI) (Candida albicans [13]): 0.017; fractional inhibitory concentration index (FICI) (Candida albicans [14]): 0.066; MIC80 (Candida albicans [15]): 0.63 µg/mL; MIC80 (Candida albicans [16]): 0.125 µg/mL; MIC80 (Candida albicans [17]): 0.125 µg/mL; MIC80 (Candida albicans [18]): 0.25 µg/mL; fractional inhibitory concentration index (FICI) (Candida albicans [19]): 0.032; MIC80 (Candida albicans [20]): 0.125 µg/mL; MIC80 (Candida albicans [21]): 0.031 µg/mL; MIC80 (Candida albicans [22]): 0.031 µg/mL
4 | N#Cc1ccc(-c2ccc(CNC(=O)CCc3ccc4c(c3)OCO4)cc2)cc1 | 8 | > 64 | 0.125 | 8 | > 64 | 0.125 | –
5 | O=C(CCc1ccc2c(c1)OCO2)NCc1cccc(F)c1 | 1 | > 64 | 0.07 | 1 | > 64 | 0.07 | –
6 | Cc1ccc(-c2ccc(CNC(=O)CCc3ccc4c(c3)OCO4)cc2)cc1 | 0.063 | > 64 | 0.063 | 0.063 | > 64 | 0.063 | fractional inhibitory concentration index (FICI) (Candida albicans [7]): 0.023; MIC80 (Candida albicans [8]): 1 µg/mL; fractional inhibitory concentration index (FICI) (Candida albicans [9]): 0.063; fractional inhibitory concentration index (FICI) (Candida albicans [10]): 0.023; fractional inhibitory concentration index (FICI) (Candida albicans [11]): 0.035; fractional inhibitory concentration index (FICI) (Candida albicans [12]): 0.023; fractional inhibitory concentration index (FICI) (Candida albicans [13]): 0.023; fractional inhibitory concentration index (FICI) (Candida albicans [14]): 0.063; MIC80 (Candida albicans [15]): 0.5 µg/mL; MIC80 (Candida albicans [16]): 2 µg/mL; MIC80 (Candida albicans [17]): 1 µg/mL; MIC80 (Candida albicans [18]): 2 µg/mL; fractional inhibitory concentration index (FICI) (Candida albicans [19]): 0.039; MIC80 (Candida albicans [20]): 1 µg/mL; MIC80 (Candida albicans [21]): 0.063 µg/mL; MIC80 (Candida albicans [22]): 0.063 µg/mL
7 | O=C(CCc1ccc2c(c1)OCO2)NCc1ccc(-c2ccc(C(F)(F)F)cc2)cc1 | 4 | > 64 | 0.094 | 4 | > 64 | 0.094 | –
8 | O=C(CCc1ccc2c(c1)OCO2)NCc1ccccc1F | 0.5 | > 64 | 0.066 | 0.5 | > 64 | 0.066 | –
9 | O=C(CCc1ccc2c(c1)OCO2)NCc1ccc(-c2ccc(F)cc2F)cc1 | 0.125 | > 64 | 0.063 | 0.063 | > 64 | 0.063 | –
10 | O=C(CCc1ccc2c(c1)OCO2)NCc1ccccc1-c1ccc(F)cc1 | 0.5 | > 64 | 0.066 | 0.5 | > 64 | 0.066 | –
11 | O=C(CCc1ccc2c(c1)OCO2)NCc1ccc(-c2ccc(F)cc2)cc1 | 0.063 | > 64 | 0.063 | 0.031 | > 64 | 0.063 | fractional inhibitory concentration index (FICI) (Candida albicans [7]): 0.01; MIC80 (Candida albicans [8]): 0.125 µg/mL; fractional inhibitory concentration index (FICI) (Candida albicans [9]): 0.064; fractional inhibitory concentration index (FICI) (Candida albicans [10]): 0.018; fractional inhibitory concentration index (FICI) (Candida albicans [11]): 0.032; fractional inhibitory concentration index (FICI) (Candida albicans [12]): 0.01; fractional inhibitory concentration index (FICI) (Candida albicans [13]): 0.017; fractional inhibitory concentration index (FICI) (Candida albicans [14]): 0.064; MIC80 (Candida albicans [15]): 0.063 µg/mL; MIC80 (Candida albicans [16]): 0.25 µg/mL; MIC80 (Candida albicans [17]): 0.25 µg/mL; MIC80 (Candida albicans [18]): 0.25 µg/mL; fractional inhibitory concentration index (FICI) (Candida albicans [19]): 0.032; MIC80 (Candida albicans [20]): 0.125 µg/mL; MIC80 (Candida albicans [21]): 0.063 µg/mL; MIC80 (Candida albicans [22]): 0.031 µg/mL
12 | O=C(CCc1ccc2c(c1)OCO2)NCc1ccccc1Br | 1 | > 64 | 0.07 | 1 | > 64 | 0.07 | –
13 | O=C(CCc1ccc2c(c1)OCO2)NCc1cccc(Br)c1 | 2 | > 64 | 0.078 | 2 | > 64 | 0.078 | –
14 | O=C(CCc1ccc2c(c1)OCO2)NCc1ccc(-c2ccsc2)cc1 | 0.25 | > 64 | 0.064 | 0.25 | > 64 | 0.064 | –
15 | O=C(CCc1ccc2c(c1)OCO2)NCc1ccc(-c2cccc(F)c2)cc1 | 0.25 | > 64 | 0.064 | 0.25 | > 64 | 0.064 | –
16 | O=C(Cc1ccccc1F)NCCc1ccc2c(c1)OCO2 | 1 | > 64 | 0.07 | 1 | > 64 | 0.07 | –
17 | COc1ccc(-c2ccc(CNC(=O)CCc3ccc4c(c3)OCO4)cc2)cc1 | 0.5 | > 64 | 0.064 | 0.25 | > 64 | 0.066 | –
18 | Cc1cccc(-c2ccc(CNC(=O)CCc3ccc4c(c3)OCO4)cc2)c1 | 1 | > 64 | 0.066 | 0.5 | > 64 | 0.07 | –
19 | Cc1ccc(-c2cccc(CNC(=O)CCc3ccc4c(c3)OCO4)c2)cc1 | 2 | > 64 | 0.07 | 1 | > 64 | 0.078 | –
20 | Cc1ccccc1CNC(=O)CCc1ccc2c(c1)OCO2 | 0.5 | > 64 | 0.064 | 0.25 | > 64 | 0.066 | –
21 | O=C(CCc1ccc2c(c1)OCO2)NCc1ccc(-c2ccco2)cc1 | 4 | > 64 | 0.078 | 2 | > 64 | 0.094 | –
22 | O=C(CCc1ccc2c(c1)OCO2)NCc1ccc(-c2cccs2)cc1 | 0.125 | > 64 | 0.063 | 0.063 | > 64 | 0.063 | –
23 | OC(Cn1cncn1)(Cn1cncn1)c1ccc(F)cc1F [FLUCONAZOLE] | – | 128 (≈ 418 µM) | – | – | 128 (≈ 418 µM) | – | –
24 | O=C(CCc1ccc2c(c1)OCO2)NCc1ccc(Br)cc1 | 1 | > 64 | 0.066 | 0.5 | > 64 | 0.07 | –
25 | O=C(CCc1ccc2c(c1)OCO2)NCc1ccc(-c2ccncc2)cc1 | 8 | > 64 | 0.125 | 8 | > 64 | 0.125 | –
26 | O=C(CCc1ccc2c(c1)OCO2)NCc1ccc(-c2ccc(Cl)cc2)cc1 | 0.5 | > 64 | 0.066 | 0.5 | > 64 | 0.066 | –
